Where a SMILES comes first, the peptide text is derived from it. The star is where a group is joined. Cbz = O=C(OCc1ccccc1)*; CH2F = FC*
Experiments:
[1] = tested on: PMKs derived from Hoip^E-KO mice; experiment: Viability of primary murine keratinocytes (PMKs) from Hoip^E-KO mice cultured with inhibitors, CellTiter-Glo assay; type: cell-based, mouse; conditions: no exogenous stimulus, cultured four days with 20 μM Z-VAD-fmk, 10 μM Necrostatin-1s or 1 μM RIPK3 inhibitor (FIG. 3e)
Description: FIG. 3. Aberrant apoptosis drives lethal dermatitis in Hoip^E-KO and Hoil-1^E-KO mice. a, Quantification of TUNEL and CC3 positive cells in skin sections from mice with the indicated genotypes (n=3 mice per genotype). Error bars represent mean values±s.e.m. *P≤0.05, **P≤0.01, ***P≤0.001. b, Representative images of skin sections from mice with the indicated genotypes (n=4) stained with antibody against CD45 (red) at P0. Nuclei were stained with DAPI (blue). White dashed lines separate the epidermis (above) from the dermis (below). Scale bar, 50 μm. c, Flow cytometry analysis of immune cells in skin samples from mice with the indicated genotypes at the indicated postnatal days. […] Lysates and IP were analysed by Western blotting for the indicated proteins. e, PMKs derived from Hoip^E-KO and control mice were cultured for four days in absence (NT: not-treated) or presence of the inhibitors Necrostatin-1s (N), ZVAD-fmk (Z) or RIPK3i. Cell viability (%) was measured by CellTiter-Glo assay on day four. […] CC3: cleaved Caspase-3. f, Cell viability (%) measured by CellTiter-Glo assay of PMKs derived from adult mice with the indicated genotypes. Results are expressed as mean values±SEM (n=8 mice per genotype). […] CC3: cleaved Caspase-3. i, Quantification of TUNEL and CC3 positive cells in skin sections from mice with the indicated genotypes (n=3 mice per genotype). […]

[2] = tested on: PMKs derived from Tnfr1^KO;Hoil-1^E-KO mice; experiment: Viability of PMKs from Tnfr1^KO;Hoil-1^E-KO mice after death ligand / Poly(I:C) stimulation, CellTiter-Glo assay; type: cell-based, mouse; conditions: 24 hours; TRAIL 50 ng/ml, CD95L 50 ng/ml, Poly(I:C) 100 μg/ml; control = Tnfr1^KO PMKs with HOIL-1 (FIG. 4a)
Experimental: FIG. 4. CD95L- and TRAIL-induced cell death drives TNFR1-independent dermatitis. a, PMKs derived from adult mice with the indicated genotypes were treated or not for 24 hours with TRAIL [50 ng/ml], CD95L [50 ng/ml] and Poly(I:C) [100 μg/ml]. Cell viability (%) was measured by CellTiter-Glo assay. Results are expressed as mean values±SEM. (n=7 mice per genotype). **p≤0.01, ***p≤0.001, NS=not significant. Control mice represent a pool of Tnfr1^KO;Hoil-1^fl/fl;K14-Cre− and Tnfr1^KO;Hoil-1^fl/wt;K14-Cre+ mice b, Representative images of mice with the indicated genotypes. c, Severity score of dermatitis was assessed at P70 in mice with the indicated genotypes. The total score was determined by evaluating the regions of the body affected by the lesions (black) and the character of the lesion (white). Tnfr1^KO;Hoil-1^E-KO (n=6), Trail-r^KO;Tnfr1^KO;Hoil-1^E-KO (n=4), Tlr3^KO;Tnfr1^KO;Hoil-1^E-KO (n=4), Cd95^E-DD; Tnfr1^KO; Hoil-1^E-KO (n=12), Trail-r^KO; Tlr3^KO;Tnfr1^KO;Hoil-1^E-KO (n=20) and Cd95^E-DD;Trail-r^KO;Tnfr1^KO;Hoil-1^E-KO (n=19), Mlkl^KO;Tnfr1^KO;Hoip^E-KO (n=13). d, Kaplan-Meier survival curve of mice with the indicated genotypes. […]
Isolation, culture and viability of primary murine keratinocytes. […] On the last day, cell viability was measured using the CellTiter-Glo Luminescent Cell Viability Assay kit (Promega) following the manufacturers instructions. […]

CN1C(=O)NC(Cc2c[nH]c3c(Cl)cccc23)C1=O (stereo not shown) [necrostatin-1s, Necrostatin-1s]
loss in viability of HOIP-deficient PMKs (cell viability, CellTiter-Glo) [1]: prevented

Polyinosinic:polycytidylic acid [Poly(I:C)]
cell viability as compared to control PMKs (CellTiter-Glo) [2]: decreased cell viability

COC(=O)C[C@H](NC(=O)[C@H](C)NC(=O)[C@@H](NC(=O)OCc1ccccc1)C(C)C)C(=O)CF [ZVAD, Z-VAD-fmk] (Cbz-Val-Ala-Asp(OMe)-CH2F)
loss in viability of HOIP-deficient PMKs (cell viability, CellTiter-Glo) [1]: prevented

B1: TRAIL: TNF-related apoptosis-inducing ligand; used as mouse iz-TRAIL (protein, UniProt P50592 39-291, looked up)
extracellular domain: YMYFTNEMKQLQDNYSKIGLACFSKTDEDFWDSTDGEILNRPCLQVKRQLYQLIEEVTLRTFQDTISTVPEKQLSTPPLPRGGRPQKVAAHITGITRRSNSALIPISKDGKTLGQKIESWESSRKGHSFLNHVLFRNGELVIEQEGLYYIYSQTYFRFQEAEDASKMVSKDKVRTKQLVQYIYKYTSYPDPIVLMKSARNSCWSRDAEYGLYSIYQGGLFELKKNDRIFVSVTNEHLMDLDQEASFFGAFLIN
modifications: extracellular domain isoleucine zipper fusion
cell viability as compared to control PMKs (CellTiter-Glo) [2]: decreased cell viability

Source: patent US20210046101A1, “COMBINATION THERAPEUTICS” (UCL BUSINESS LTD, priority 2018, published 2021)
